This passage reports TGI and GI50 results from PubChem BioAssay (NCI).

Several values for one entry are separate records, joined by “and”; a condition that tells them apart may be missing. Equal entries are not always repeated.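 Dose response: 5 concentrations. Exposure: 48 h. Format: 96-well plates. Endpoint: linear interpolation; highest concentration if not reached. Abbreviation: GI50, concentration required for 50% inhibition of growth. The concentration for full growth arrest is given as TGI.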

The first assay deals with NCI-H522 lung. The assay can be described thus: NCI-60 cell line screen, 48 h.
As to `CC1(C)CC(=O)C(CC2C(=O)c3ccccc3C2=O)C(=O)C1`, the TGI is more than 100 µM.
Regarding `Nc1cc(-c2ccc(Cl)cc2)nn1-c1nnc(/C=C/c2ccco2)c(=O)[nH]1`, the GI50 is 8.95 µM and the TGI was 40.3 µM.
As to `O=C1c2ccccc2-c2c1c1c(NCCCO)nc3ccccc3c1n2Cc1ccccc1`, the GI50 is 26 µM and the TGI worked out at 96.3 µM.
On to `CCOc1ccc(Nc2c3ccccc3nc3ccccc23)cc1`, for which the GI50 is 0.214 µM and 0.319 µM; the TGI is 1.44 µM and 11.8 µM.
With `CCNCCNc1cc(-c2ccc(C#N)cc2)c(C#N)c2nc3ccccc3n12`, the GI50 is 2.44 µM and the TGI is 7.06 µM.
In the same order, the values of `COc1cc2nc(-c3ccc(C(F)(F)F)cc3)cc(OCCCN3CCCC3)c2cc1OC` are 1.15 µM and 25.8 µM.
The compound `N#CC(C#N)=c1c2nsnc2c(=C(C#N)C#N)c2nsnc12` gave a TGI of 3.51 µM.
Consider `C/C1=C\CC[C@@](C)(O)[C@@H]2C[C@H](CC/C(C)=C/CC1)C1(CC1)C(=O)O2`, for which the GI50 was 35.1 µM and the TGI was more than 100 µM.
The like results for `COc1ccc(C(=O)c2nc3ccccc3n2CC(=O)c2ccc(Cl)cc2)cc1` were, in that order, 3.95 µM and more than 100 µM.
In the same order, the values of `O=C(NCCN1CCNCC1)c1ccc(Nc2nc3ccccc3c3occc23)cc1` are 10.3 µM and 28.3 µM.
`OCc1ccc(N2CCOCC2)cc1Cl`: the GI50 was more than 100 µM and the TGI was more than 100 µM.
In turn, `Cc1nc(-c2cccnc2)sc1C(=O)/C=C/c1cccc([N+](=O)[O-])c1` yielded a TGI of more than 100 µM.

Another assay concerns SK-MEL-5 melanoma. The assay can be described thus: NCI-60 cell line screen, 48 h.
In turn, `Cc1c(C(=O)/C=C/c2ccccc2[N+](=O)[O-])[n+](=O)c2ccccc2n1[O-]` registered a TGI of 24.4 µM.
Still for that read-out and setting: next, `COc1ccc2c(NCCCCCCNc3c4ccccc4nc4cc(OC)ccc34)c3ccccc3nc2c1`: 5.76 µM; `CC(C)(C)c1ccc(OC2CCO2)cc1` (centres undefined): more than 100 µM.
With `CC1(O)CCn2c(=O)c3cc4ccccc4cc3c(=O)n2C1O` (centres undefined), the TGI is more than 100 µM.
On to `CC(=O)n1c(=O)c2cc3c(=O)n(-c4cccc(C#N)c4)c(=O)c3cc2c1=O`, for which the TGI is more than 100 µM.
Still for that read-out and setting: next, `COc1ccc(C2Oc3c(c(O)cc4c3[C@H](c3ccc(O)cc3O)[C@H](O)C(c3ccc(O)c(O)c3)O4)C[C@@H]2O)cc1O` (some centres undefined): more than 100 µM; `CN(C)C(=S)Nc1nnc(Nc2ccccc2)s1`: more than 100 µM.
For the compound `CC(=O)[CH-]C(=O)c1ccccc1.CC(=O)[CH-]C(=O)c1ccccc1.CC1(C)OCC(C2OC3OC(C)(C)OC3C2[O-])O1.CC[O-].[Ti+4]` (centres undefined), the GI50 was 10.8 µM and the TGI is 23.9 µM.
The compound `COc1c(O)c(OC)c2oc(-c3ccc(O)cc3)c(OC)c(=O)c2c1O` registered a TGI of more than 100 µM.
Consider `COc1ccc(C2=C(N3CCc4ccccc43)C(=O)NC2=O)cc1`, for which the GI50 is more than 21.6 µM and the TGI is more than 25 µM.
The like results for `O=[N+]([O-])c1ccc(-c2cc3c(Nc4ccc(Cl)c(C(F)(F)F)c4)ncnc3s2)cc1` were, in that order, 1.13 µM and 2.58 µM.
In the same order, the values of `Cc1cc2c(cc1Cl)S/C(=C/C(=O)O)C(Nc1cccc3nsnc13)=NS2(=O)=O` are 33.4 µM and more than 58.5 µM.
Turning to `COc1ccc(F)c(F)c1C(=O)c1cnc(NC2CCN(S(C)(=O)=O)CC2)nc1N`, the GI50 is 0.369 µM and 0.399 µM; the TGI was 4.64 µM and > 7.12 µM.
Consider `CC1(C)CC(=O)C(CC2C(=O)c3ccccc3C2=O)C(=O)C1`, for which the TGI was more than 100 µM.
Regarding `Nc1cc(-c2ccc(Cl)cc2)nn1-c1nnc(/C=C/c2ccco2)c(=O)[nH]1`, the GI50 was 3.37 µM and the TGI turned out to be 20.2 µM.
The like results for `O=C1c2ccccc2-c2c1c1c(NCCCO)nc3ccccc3c1n2Cc1ccccc1` were, in that order, 31 µM and more than 100 µM.
On to `Cc1ccc(C)c(N2C(=O)C(=O)C(c3nc4ccccc4s3)C(=Nc3cccc4c(=O)[nH][nH]c(=O)c34)C2=O)c1` (centres undefined), for which the TGI was more than 100 µM.
On to `CCOc1ccc(Nc2c3ccccc3nc3ccccc23)cc1`, for which the GI50 was 0.343 µM and 0.371 µM; the TGI was 1.33 µM and 1.45 µM.
Turning to `CCNCCNc1cc(-c2ccc(C#N)cc2)c(C#N)c2nc3ccccc3n12`, the GI50 is 2.28 µM and the TGI amounted to 5.67 µM.
`Cc1cccc(C)c1N1C(=O)C(=O)C(c2nc3ccccc3s2)C(=Nc2cccc3c(=O)[nH][nH]c(=O)c23)C1=O` (centres undefined) returned a TGI of more than 100 µM.
For the compound `COc1cc2nc(-c3ccc(C(F)(F)F)cc3)cc(OCCCN3CCCC3)c2cc1OC`, the GI50 is 0.51 µM and the TGI came to 1.28 µM.
For the compound `C/C1=C\CC[C@@](C)(O)[C@@H]2C[C@H](CC/C(C)=C/CC1)C1(CC1)C(=O)O2`, the GI50 is 17.4 µM and the TGI is 35 µM.
In the same order, the values of `COc1ccc(C(=O)c2nc3ccccc3n2CC(=O)c2ccc(Cl)cc2)cc1` are 2.55 µM and 12.9 µM.
The like results for `O=C(NCCN1CCNCC1)c1ccc(Nc2nc3ccccc3c3occc23)cc1` were, in that order, 3.39 µM and 13.7 µM.
The like results for `OCc1ccc(N2CCOCC2)cc1Cl` were, in that order, more than 91.2 µM and more than 100 µM.
The compound `Cc1nc(-c2cccnc2)sc1C(=O)/C=C/c1cccc([N+](=O)[O-])c1` showed a TGI of more than 100 µM.

A further assay relates to SK-OV-3 ovarian. The assay can be described thus: NCI-60 cell line screen, 48 h.
Compound `Cc1c(C(=O)/C=C/c2ccccc2[N+](=O)[O-])[n+](=O)c2ccccc2n1[O-]` showed a TGI of 31.8 µM.
On the same count and under the same terms, in the case of `COc1ccc2c(NCCCCCCNc3c4ccccc4nc4cc(OC)ccc34)c3ccccc3nc2c1` it was 2.04 µM; in that of `CC(C)(C)c1ccc(OC2CCO2)cc1` (centres undefined), more than 100 µM.
Still for that read-out and setting: in the case of `CC1(O)CCn2c(=O)c3cc4ccccc4cc3c(=O)n2C1O` (centres undefined) it was more than 100 µM.
Same read-out and setting: in the case of `CC(=O)n1c(=O)c2cc3c(=O)n(-c4cccc(C#N)c4)c(=O)c3cc2c1=O` it was more than 100 µM; in that of `COc1ccc(C2Oc3c(c(O)cc4c3[C@H](c3ccc(O)cc3O)[C@H](O)C(c3ccc(O)c(O)c3)O4)C[C@@H]2O)cc1O` (some centres undefined), more than 100 µM; in that of `CN(C)C(=S)Nc1nnc(Nc2ccccc2)s1`, more than 100 µM.
Take `CC(=O)[CH-]C(=O)c1ccccc1.CC(=O)[CH-]C(=O)c1ccccc1.CC1(C)OCC(C2OC3OC(C)(C)OC3C2[O-])O1.CC[O-].[Ti+4]` (centres undefined): the GI50 is 21.9 µM and the TGI came to 61.1 µM.
With `COc1c(O)c(OC)c2oc(-c3ccc(O)cc3)c(OC)c(=O)c2c1O`, the TGI amounted to 53.7 µM.
Take `COc1ccc(C2=C(N3CCc4ccccc43)C(=O)NC2=O)cc1`: the GI50 is more than 25 µM and the TGI was more than 25 µM.
Consider `O=[N+]([O-])c1ccc(-c2cc3c(Nc4ccc(Cl)c(C(F)(F)F)c4)ncnc3s2)cc1`, for which the GI50 is 2.77 µM and the TGI is more than 26.3 µM.
Consider `Cc1cc2c(cc1Cl)S/C(=C/C(=O)O)C(Nc1cccc3nsnc13)=NS2(=O)=O`, for which the GI50 was more than 49.5 µM and the TGI is more than 62.5 µM.
Regarding `COc1ccc(F)c(F)c1C(=O)c1cnc(NC2CCN(S(C)(=O)=O)CC2)nc1N`, the GI50 was 4.35 µM and 4.24 µM; the TGI is more than 100 µM.
For `CC1(C)CC(=O)C(CC2C(=O)c3ccccc3C2=O)C(=O)C1`, the TGI was more than 100 µM.
In the case of `Nc1cc(-c2ccc(Cl)cc2)nn1-c1nnc(/C=C/c2ccco2)c(=O)[nH]1`, the GI50 was 6.09 µM and the TGI is more than 86.2 µM.
In the same order, the values of `O=C1c2ccccc2-c2c1c1c(NCCCO)nc3ccccc3c1n2Cc1ccccc1` are 21.9 µM and 40.4 µM.
For the compound `Cc1ccc(C)c(N2C(=O)C(=O)C(c3nc4ccccc4s3)C(=Nc3cccc4c(=O)[nH][nH]c(=O)c34)C2=O)c1` (centres undefined), the TGI was more than 100 µM.
As for `CCOc1ccc(Nc2c3ccccc3nc3ccccc23)cc1`, the GI50 is 0.501 µM and 0.323 µM; the TGI is 6.06 µM and 7.73 µM.
In the case of `CCNCCNc1cc(-c2ccc(C#N)cc2)c(C#N)c2nc3ccccc3n12`, the GI50 is 3.8 µM and the TGI was found to be 14.8 µM.
Regarding `Cc1cccc(C)c1N1C(=O)C(=O)C(c2nc3ccccc3s2)C(=Nc2cccc3c(=O)[nH][nH]c(=O)c23)C1=O` (centres undefined), the TGI is more than 100 µM.
Take `COc1cc2nc(-c3ccc(C(F)(F)F)cc3)cc(OCCCN3CCCC3)c2cc1OC`: the GI50 was 6.65 µM and the TGI is more than 53.4 µM.
`C/C1=C\CC[C@@](C)(O)[C@@H]2C[C@H](CC/C(C)=C/CC1)C1(CC1)C(=O)O2`: the GI50 is 39 µM and the TGI was more than 100 µM.
In the same order, the values of `COc1ccc(C(=O)c2nc3ccccc3n2CC(=O)c2ccc(Cl)cc2)cc1` are 10.4 µM and more than 100 µM.
In the same order, the values of `O=C(NCCN1CCNCC1)c1ccc(Nc2nc3ccccc3c3occc23)cc1` are 19.3 µM and 47.5 µM.
For `OCc1ccc(N2CCOCC2)cc1Cl`, the GI50 was more than 100 µM and the TGI was more than 100 µM.
`Cc1nc(-c2cccnc2)sc1C(=O)/C=C/c1cccc([N+](=O)[O-])c1` came in with a TGI of more than 100 µM.

In a further assay the test system is T-47D breast. The assay can be described thus: NCI-60 cell line screen, 48 h.
With `COc1ccc2c(NCCCCCCNc3c4ccccc4nc4cc(OC)ccc34)c3ccccc3nc2c1`, the TGI came out at 6.16 µM.
`COc1c(O)c(OC)c2oc(-c3ccc(O)cc3)c(OC)c(=O)c2c1O` had a TGI of 55.7 µM.
As for `COc1ccc(C2=C(N3CCc4ccccc43)C(=O)NC2=O)cc1`, the GI50 was more than 17.8 µM and the TGI is more than 25 µM.
As to `O=[N+]([O-])c1ccc(-c2cc3c(Nc4ccc(Cl)c(C(F)(F)F)c4)ncnc3s2)cc1`, the GI50 was 0.407 µM and the TGI came to 6.1 µM.
The like results for `Cc1cc2c(cc1Cl)S/C(=C/C(=O)O)C(Nc1cccc3nsnc13)=NS2(=O)=O` were, in that order, more than 77.8 µM and more than 100 µM.
Turning to `COc1ccc(F)c(F)c1C(=O)c1cnc(NC2CCN(S(C)(=O)=O)CC2)nc1N`, the GI50 is 1.04 µM and 0.678 µM; the TGI is 11.8 µM and > 8.01 µM.
For the compound `Nc1cc(-c2ccc(Cl)cc2)nn1-c1nnc(/C=C/c2ccco2)c(=O)[nH]1`, the GI50 was 5.35 µM and the TGI was more than 66.5 µM.
The like results for `O=C1c2ccccc2-c2c1c1c(NCCCO)nc3ccccc3c1n2Cc1ccccc1` were, in that order, 21 µM and 46.4 µM.
On to `CCOc1ccc(Nc2c3ccccc3nc3ccccc23)cc1`, for which the GI50 was 1.34 µM and 0.916 µM; the TGI was 3.78 µM and 3.83 µM.
Consider `CCNCCNc1cc(-c2ccc(C#N)cc2)c(C#N)c2nc3ccccc3n12`, for which the GI50 is 2.34 µM and the TGI was found to be 6.39 µM.
In the same order, the values of `COc1cc2nc(-c3ccc(C(F)(F)F)cc3)cc(OCCCN3CCCC3)c2cc1OC` are 0.478 µM and 15.9 µM.
`C/C1=C\CC[C@@](C)(O)[C@@H]2C[C@H](CC/C(C)=C/CC1)C1(CC1)C(=O)O2`: the GI50 is 16.7 µM and the TGI turned out to be 67.2 µM.
In the case of `COc1ccc(C(=O)c2nc3ccccc3n2CC(=O)c2ccc(Cl)cc2)cc1`, the GI50 is 3.65 µM and the TGI was more than 100 µM.
In the same order, the values of `O=C(NCCN1CCNCC1)c1ccc(Nc2nc3ccccc3c3occc23)cc1` are 5.71 µM and 35.4 µM.
In the same order, the values of `OCc1ccc(N2CCOCC2)cc1Cl` are 14.7 µM and more than 84.1 µM.
